# Source: patent publication US20250026747A1, “COLIBACTIN DERIVATIVES AND METHODS OF TREATING, AMELIORATING, AND/OR PREVENTING CANCER” (priority 2021, published 2025)
# System: linearized pUC19 DNA
# Experiment: DNA cross-linking assay with linearized pUC19 DNA, denaturing agarose gel electrophoresis
# Assay type: biochemical
# Settings: for DNA interstrand cross-link (ICL) formation: linearized pUC19 DNA
# Method: FIGS. 6A-6C depict the DNA crosslinking ability of several compounds according to some embodiments. The DNA cross-linking assays employ linear pUC19 DNA. DMSO was used as vehicle (negative control), and 100 μM cisplatin was used as positive controls. The DNA was analyzed by 0.4% NaOH denaturing and agarose gel electrophoresis (90 V, 1.5 h). FIG. 6A depicts the DNA cross-linking comparison of colibactin 770 (3a), stable colibactin 742 (4), and its linear precursor 9 at pH 5.0. FIG. 6B depicts the comparison of the relative DNA cross-linking abilities of colibactin 742 (4) and its linear precursor 9 at pH 5.0. FIG. 6C depicts the comparison of the relative DNA cross-linking abilities of colibactin 742 (4) and its linear precursor 9 at pH 7.0.
# FIG. 10 depicts the DNA cross-linking assay employing linear pUC19 DNA and synthetic colibactin (3), 9, and colibactin 742 (4) according to some embodiments. Specifically, 5% DMSO was used as vehicle (negative control), and 100 μM cisplatin was used as positive control. DNA ladder (Lane #1); 5% DMSO (Lane #2); 100 μM cisplatin (Lane #3); 200 μM colibactin (3) (Lane #4); 100 μM colibactin (3) (Lane #5); 10 μM colibactin (3) (Lane #6); 1 μM colibactin (3) (Lane #7); 200 μM 9 (Lane #8); 100 μM 9 (Lane #9); 10 μM 9 (Lane #10); 1 μM 9 (Lane #11); 200 μM colibactin 742 (4) (Lane #12); 100 μM colibactin 742 (4) (Lane #13); 10 μM colibactin 742 (4) (Lane #14); 1 μM colibactin 742 (4) (Lane #15). Conditions (Lane #3): linearized pUC19 DNA (15.4 μM in base pairs), 5% DMSO (vehicle), 100 μM cisplatin, 10 mM citric buffer, pH 5.0, 4 h, 37° C. Conditions (Lanes #4-#7): linearized pUC19 DNA (15.4 μM in base pairs), colibactin (3) (200 μM-1 μM), 5% DMSO, 10 mM citric buffer, pH 5.0, 4 h, 37° C. Conditions (Lanes #8-#11): linearized pUC19 DNA (15.4 μM in base pairs), 9 (200 μM-1 μM), 5% DMSO, 10 mM citric buffer, pH 5.0, 4 h, 37° C. Conditions (Lanes #12-#15): linearized pUC19 DNA (15.4 μM in base pairs), colibactin 742 (4) (200 μM-1 μM), 5% DMSO, 10 mM citric buffer, pH 5.0, 4 h, 37° C. The DNA was analyzed by native, 0.2% NaOH, 0.4% NaOH, and 1% NaOH denaturing agarose gel electrophoresis (90 V, 1.5 h). Linear=linearized DNA in native form, linear-denat.=linearized DNA in denaturing form, linear-XL=linerized DNA cross-linked by colibactins or cisplatin.
# FIG. 11 depicts the DNA cross-linking assay employing linear pUC19 DNA and synthetic colibactin fragments 23, 24, and 22. Specifically, 5% DMSO was used as vehicle (negative control), and 100 μM cisplatin was used as positive control. DNA ladder (Lane #1); 5% DMSO (Lane #2); 100 μM cisplatin (Lane #3); 500 μM 23 (Lane #4); 100 μM 23 (Lane #5); 10 μM 23 (Lane #6); 1 μM 23 (Lane #7); 100 nm 23 (Lane #8); 500 μM 24 (Lane #9); 100 μM 24 (Lane #10); 10 μM 24 (Lane #11); 1 μM 24 (Lane #12); 100 nm 24 (Lane #13); 500 μM 22 (Lane #14); 100 μM 22 (Lane #15); 10 μM 22 (Lane #16); 1 μM 22 (Lane #17); 100 nm 22 (Lane #18). Conditions (Lane #2): linearized pUC19 DNA (15.4 μM in base pairs), 5% DMSO (vehicle), 10 mM citric buffer, pH 5.0, 4 h, 37° C. Conditions (Lane #3): linearized pUC19 DNA (15.4 μM in base pairs), 5% DMSO (vehicle), 100 μM cisplatin, 10 mM citric buffer, pH 5.0, 4 h, 37° C. Conditions (Lanes #4-#8): linearized pUC19 DNA (15.4 μM in base pairs), 23 (500 μM-100 nM), 5% DMSO, 10 mM citric buffer, pH 5.0, 4 h, 37° C. Conditions (Lanes #9-#13): linearized pUC19 DNA (15.4 μM in base pairs), 24 (500 μM-1 μM), 5% DMSO, 10 mM citric buffer, pH 5.0, 4 h, 37° C. Conditions (Lanes #14-#18): linearized pUC19 DNA (15.4 μM in base pairs), 22 (500 μM-100 nM), 5% DMSO, 10 mM citric buffer, pH 5.0, 4 h, 37° C. The DNA was analyzed by native, 0.2% NaOH, 0.4% NaOH, and 1% NaOH denaturing agarose gel electrophoresis (90 V, 1.5 h). Linear=linearized DNA in native form, linear-denat.=linearized DNA in denaturing form, linear-XL=DSB/linerized DNA cross-linked by colibactins or cisplatin. […]
Structure (SMILES),DNA alkylation,"DNA interstrand cross-link (ICL) formation (pH 5.0, 4 h, 37° C.)","DNA interstrand cross-link (ICL) formation (pH 7.0, 1 nM-100 μM)",concentration inducing stable DNA ICLs relative to 3a (pH 5.0),"stability of the ICLs under increasingly stringent denaturing conditions (pH 5.0, native, 0.2%, 0.4%, 1% NaOH gels)"
C[C@H]1CCC(C2=C(CC(=O)NCC(=O)c3csc(CCc4csc(CNC(=O)CC5=C(C6=N[C@@H](C)CC6)C(=O)NC5(C)C)n4)n3)C(C)(C)NC2=O)=N1 [compound 22],lack of DNA alkylation,failed to form DNA ICLs,–,–,–
"CCOC(=O)c1csc(CNC(=O)CC2=C(C3=N[C@@H](C)CC3)C(=O)NC23CC3)n1 [compound 23, reference compound]",–,failed to form DNA ICLs,–,–,–
C[C@H]1CCC(CC(=O)NC2(C(=O)CC(=O)NCC(=O)c3csc(CCc4csc(CNC(=O)CC(=O)C5(NC(=O)CC6=N[C@@H](C)CC6)CC5)n4)n3)CC2)=N1 [compound 9],–,induced stable DNA ICLs,induced stable ICLs,ten-fold lower,comparable to those derived from 3a
CCOC(=O)c1nc(C2(O)CNC(=O)C2C2=C(C3=N[C@@H](C)CC3)C(=O)NC23CC3)cs1 (some centres unmarked) [compound 24],–,failed to form DNA ICLs,–,–,–
